Where no end group is shown, it is not given here.
Key:
[1] = target: T1, DRB1*0813 (DRA*0101/DRB1*0813) (Homo sapiens, UniProt P01903+P01911, A100R/A103L/A169T/F76Y/H45Y/I96L/K41T/L162R/M171V/P40S/Q125H/Q178H/Q39Y/Q99D/R218S/R42G/S66Y/V115G/W38E); test: Direct LOCI peptide-MHC-II binding assay, DRB1*0813
T1 construct: DRA*01011-181LZFos; DRB1*08131-190LZJunBSP; made in house

DR3 (DRA*0101/DRB1*0301) = target: T2, DR3 (DRA*0101/DRB1*0301) (Homo sapiens, UniProt P01903+P01911, A100K/A102G/A103R/A169T/F55Y/I96L/K41T/L162R/M171V/P40S/Q125H/Q178H/Q39Y/R42S/S66N/T106N/T262R/W38E/Y61H); test: Direct LOCI peptide-MHC-II binding assay, DR3
T2 construct: DRA*01011-181LZFos; DRB1*03011-190LZJunBSP; made in house

DR4 (DRA*0101/DRB1*0401) = target: T3, DR4 (DRA*0101/DRB1*0401) (Homo sapiens, UniProt P01903+P01911, A100K/A169T/F76Y/I96L/K127E/L162R/M171V/N62H/P40V/Q125Y/R42H/S133A/S149N/S66Y/V115G/V209L/W38E); test: Direct LOCI peptide-MHC-II binding assay, DR4
T3 construct: DRA*01011-181LZFos; DRB1*04011-190LZJunBSP; made in house

[2] = target: DP401 (DPA1*0103/DPB1*0401) (Homo sapiens, UniProt P04440+P20036); test: Direct LOCI peptide-MHC-II binding assay, DP401
[3] = target: T4, DRB3*0301 (DRA*0101/DRB3*0301) (Homo sapiens, UniProt P01903+P79483, A169T/A212P/D57E/G115V/L67V/Q178H/R103Q/R40L/Y55F); test: Direct LOCI peptide-MHC-II binding assay, DRB3*0301
T4 construct: DRA*01011-181LZFos; DRB3*03011-190LZJunBSP; made in house

DP401 (DPA1*0103/DPB1*0401), sequence (P20036 with tags, fused parts or gaps C154S): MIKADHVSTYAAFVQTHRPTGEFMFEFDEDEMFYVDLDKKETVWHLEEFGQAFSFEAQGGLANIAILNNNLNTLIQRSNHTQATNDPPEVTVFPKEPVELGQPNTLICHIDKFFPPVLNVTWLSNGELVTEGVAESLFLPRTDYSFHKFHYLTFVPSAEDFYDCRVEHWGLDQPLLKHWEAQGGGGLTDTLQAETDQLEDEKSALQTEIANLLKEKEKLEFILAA
DP401 (DPA1*0103/DPB1*0401), sequence (as listed by the source): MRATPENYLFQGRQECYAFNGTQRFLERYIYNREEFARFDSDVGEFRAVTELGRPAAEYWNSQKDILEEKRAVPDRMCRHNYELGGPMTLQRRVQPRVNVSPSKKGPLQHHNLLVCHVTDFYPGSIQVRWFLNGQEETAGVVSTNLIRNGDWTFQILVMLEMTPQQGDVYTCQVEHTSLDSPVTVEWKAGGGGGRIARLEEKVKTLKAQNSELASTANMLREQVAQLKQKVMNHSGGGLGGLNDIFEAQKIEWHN

With CSCC[C@H](NC(=O)[C@@H](N)Cc1ccccc1)C(=O)N[C@@H](CO)C(=O)N[C@@H](CCCNC(=N)N)C(=O)N[C@@H](CCCCN)C(=O)N[C@@H](CC(C)C)C(=O)N[C@@H](Cc1c[nH]cn1)C(=O)N[C@@H](CCCNC(=N)N)C(=O)N[C@@H](Cc1ccc(O)cc1)C(=O)O [Hantaan] the Kd [1] was 0.021 µM, the Kd (DR3 (DRA*0101/DRB1*0301)) was 0.279 µM and the Kd (DR4 (DRA*0101/DRB1*0401)) was > 5 µM. The Kd [2] was > 5 µM.
WMARRHAER [Brucella] was tested, and the Kd (DR3 (DRA*0101/DRB1*0301)) was > 5 µM, the Kd [3] was > 5 µM and the Kd (DR4 (DRA*0101/DRB1*0401)) was > 5 µM. The Kd [2] was > 5 µM.

Reference: PMC2690590, “Functional recombinant MHC class II molecules and high-throughput peptide-binding assays” (Immunome Research, 2009)
